Measurements reported in patent EP0908457B1, “3-(1,2-benzisothiazol- and isoxazol-5-Y1)-2,4(1H,3H)-pyrimidinedione or thione and 3-(1,2-benzisothiazol- and isoxazol-5-y1)-4(3H)-pyrimidinone or thione herbicidal agents” (BASF AKTIENGESELLSCHAFT, priority 1997, dated 1999).

How the values were obtained:
[1] = system: Echinochloa oryzoides (Ard.) Fritsch.; test: Preemergence weed control under flooded paddy conditions, ECHORC (Watergrass (Calif.)); format: in vivo; details: flooded paddy, rated three to four weeks after treatment; for herbicidal effect rating, ECHORC: meaning of each grade not given here
Cyperus iria = test: Preemergence weed control under flooded paddy conditions, CYPIR (Rice Flatsedge); format: in vivo; details: flooded paddy, rated three to four weeks after treatment; for herbicidal effect rating, CYPIR: meaning of each grade not given here
[2] = system: Monochoria vaginalis, Presl.; test: Preemergence weed control under flooded paddy conditions, MOOVA (Monochoria); format: in vivo; details: flooded paddy, rated three to four weeks after treatment; for herbicidal effect rating, MOOVA: meaning of each grade not given here
Sagittaria pygmaea, L. = test: Preemergence weed control under flooded paddy conditions, SAGPY (Arrowhead (Pygmaea)); format: in vivo; details: flooded paddy, rated three to four weeks after treatment; for herbicidal effect rating, SAGPY: meaning of each grade not given here
[3] = system: Oryza sativa, (L.) Tebonnet; test: Rice tolerance to post-transplant applications under flooded paddy conditions (Example 187), ORYSAT (Rice, Tebonnet); details: rated three to four weeks after treatment; for herbicidal effect rating ORYSAT: meaning of each grade not given here
[4] = Rate 0.0320 kg/ha, preemergence weeds
[5] = Rate 0.0620 kg/ha, preemergence weeds
[6] = Rate 0.1250 kg/ha, preemergence weeds
[7] = Rate 0.2500 kg/ha, preemergence weeds
[8] = Rate 0.0320 kg/ha, preemergence
[9] = Rate 0.0620 kg/ha, preemergence
[10] = Rate 0.1250 kg/ha, preemergence
[11] = Rate 0.2500 kg/ha, preemergence
[12] = Rate 0.5000 kg/ha, preemergence

## Cn1c(C(F)(F)F)cc(=O)n(-c2ccc3snc(CSCC(=O)NS(C)(=O)=O)c3c2)c1=O [Example 297, Acetamide, 2-{{{5-[3,6-dihydro-3-methyl-2,6-dioxo-4-(trifluoromethyl)-1(2H)-pyrimidinyl]-1,2-benzisothiazol-3-yl}methyl}thio}-N-(methylsulfonyl)-]
[1]; [4]
  herbicidal effect rating, ECHORC: 0.0
[1]; [5]
  herbicidal effect rating, ECHORC: 0.0
[1]; [6]
  herbicidal effect rating, ECHORC: 3.0
[1]; [7]
  herbicidal effect rating, ECHORC: 4.0
Cyperus iria; [4]
  herbicidal effect rating, CYPIR: 4.0
Cyperus iria; [5]
  herbicidal effect rating, CYPIR: 5.0
Cyperus iria; [6]
  herbicidal effect rating, CYPIR: 7.0
Cyperus iria; [7]
  herbicidal effect rating, CYPIR: 9.0
[2]; [4]
  herbicidal effect rating, MOOVA: 9.0
[2]; [5]
  herbicidal effect rating, MOOVA: 9.0
[2]; [6]
  herbicidal effect rating, MOOVA: 9.0
[2]; [7]
  herbicidal effect rating, MOOVA: 9.0
Sagittaria pygmaea, L.; [4]
  herbicidal effect rating, SAGPY: 0.0
Sagittaria pygmaea, L.; [5]
  herbicidal effect rating, SAGPY: 0.0
Sagittaria pygmaea, L.; [6]
  herbicidal effect rating, SAGPY: 3.0
Sagittaria pygmaea, L.; [7]
  herbicidal effect rating, SAGPY: 9.0
[3]; Rate 0.0320 kg/ha
  herbicidal effect rating ORYSAT: 0.0
[3]; Rate 0.0620 kg/ha
  herbicidal effect rating ORYSAT: 0.0
[3]; Rate 0.1250 kg/ha
  herbicidal effect rating ORYSAT: 0.0
[3]; Rate 0.2500 kg/ha
  herbicidal effect rating ORYSAT: 2.0

## Cn1c(C(F)(F)F)cc(=O)n(-c2cc3c(C(=O)NS(=O)(=O)Cc4ccccc4)nsc3cc2F)c1=O [Example 482, 1,2-Benzisothiazole-3-carboxamide, N-(benzylsulfonyl)-5-[3,6-dihydro-3-methyl-2,6-dioxo-4-(trifluoromethyl)-1(2H)-pyrimidinyl]-6-fluoro-]
[1]; 0.0320 kg/ha, preemergence
  ECHORC herbicidal rating: 4.0
[1]; 0.0620 kg/ha, preemergence
  ECHORC herbicidal rating: 7.0
[1]; 0.1250 kg/ha, preemergence
  ECHORC herbicidal rating: 9.0
[1]; 0.2500 kg/ha, preemergence
  ECHORC herbicidal rating: 9.0
Cyperus iria; 0.0320 kg/ha, preemergence
  CYPIR herbicidal rating: 0.0
Cyperus iria; 0.0620 kg/ha, preemergence
  CYPIR herbicidal rating: 0.0
Cyperus iria; 0.1250 kg/ha, preemergence
  CYPIR herbicidal rating: 0.0
Cyperus iria; 0.2500 kg/ha, preemergence
  CYPIR herbicidal rating: 6.0
[2]; 0.0320 kg/ha, preemergence
  MOOVA herbicidal rating: 4.0
[2]; 0.0620 kg/ha, preemergence
  MOOVA herbicidal rating: 5.0
[2]; 0.1250 kg/ha, preemergence
  MOOVA herbicidal rating: 6.0
[2]; 0.2500 kg/ha, preemergence
  MOOVA herbicidal rating: 7.0
Sagittaria pygmaea, L.; 0.0320 kg/ha, preemergence
  SAGPY herbicidal rating: 3.0
Sagittaria pygmaea, L.; 0.0620 kg/ha, preemergence
  SAGPY herbicidal rating: 4.0
Sagittaria pygmaea, L.; 0.1250 kg/ha, preemergence
  SAGPY herbicidal rating: 5.0
Sagittaria pygmaea, L.; 0.2500 kg/ha, preemergence
  SAGPY herbicidal rating: 7.0
[3]; 0.0320 kg/ha
  ORYSAT herbicidal rating (rice tolerance): 0.0
[3]; 0.0620 kg/ha
  ORYSAT herbicidal rating (rice tolerance): 2.0
[3]; 0.1250 kg/ha
  ORYSAT herbicidal rating (rice tolerance): 6.0
[3]; 0.2500 kg/ha
  ORYSAT herbicidal rating (rice tolerance): 7.0

## Cn1c(C(F)(F)F)cc(=O)n(-c2ccc3snc(C(=O)Oc4ccc(F)cc4)c3c2)c1=O [Example 320, 1,2-Benzisothiazole-3-carboxylic acid, 5-[3,6-dihydro-3-methyl-2,6-dioxo-4-(trifluoromethyl)-1(2H)-pyrimidinyl]-, p-fluorophenyl ester]
[1]; [4]
  herbicidal effect rating, ECHORC: 0.0
[1]; [5]
  herbicidal effect rating, ECHORC: 0.0
[1]; [6]
  herbicidal effect rating, ECHORC: 0.0
[1]; [7]
  herbicidal effect rating, ECHORC: 2.5
Cyperus iria; [4]
  herbicidal effect rating, CYPIR: 0.0
Cyperus iria; [5]
  herbicidal effect rating, CYPIR: 2.0
Cyperus iria; [6]
  herbicidal effect rating, CYPIR: 5.5
Cyperus iria; [7]
  herbicidal effect rating, CYPIR: 8.0
[2]; [4]
  herbicidal effect rating, MOOVA: 0.0
[2]; [5]
  herbicidal effect rating, MOOVA: 0.0
[2]; [6]
  herbicidal effect rating, MOOVA: 3.0
[2]; [7]
  herbicidal effect rating, MOOVA: 9.0
Sagittaria pygmaea, L.; [4]
  herbicidal effect rating, SAGPY: 1.0
Sagittaria pygmaea, L.; [5]
  herbicidal effect rating, SAGPY: 2.5
Sagittaria pygmaea, L.; [6]
  herbicidal effect rating, SAGPY: 2.5
Sagittaria pygmaea, L.; [7]
  herbicidal effect rating, SAGPY: 5.0
[3]; Rate 0.0320 kg/ha
  herbicidal effect rating ORYSAT: 1.5
[3]; Rate 0.0620 kg/ha
  herbicidal effect rating ORYSAT: 2.0
[3]; Rate 0.1250 kg/ha
  herbicidal effect rating ORYSAT: 2.0
[3]; Rate 0.2500 kg/ha
  herbicidal effect rating ORYSAT: 2.5

## COc1ccc(O)c(-c2nsc3ccc(-n4c(=O)cc(C(F)(F)F)n(C)c4=O)cc23)c1 [Example 361, 2,4(1H,3H)-Pyrimidinedione, 3-[3-(2-hydroxy-5-methoxyphenyl)-1,2-benzisothiazol-5-yl]-1-methyl-6-(trifluoromethyl)-]
[1]; [8]
  herbicidal effect rating, ECHORC: 0.0
[1]; [9]
  herbicidal effect rating, ECHORC: 0.0
[1]; [10]
  herbicidal effect rating, ECHORC: 0.0
[1]; [11]
  herbicidal effect rating, ECHORC: 4.0
[1]; [12]
  herbicidal effect rating, ECHORC: 4.0
Cyperus iria; [8]
  herbicidal effect rating, CYPIR: 0.0
Cyperus iria; [9]
  herbicidal effect rating, CYPIR: 0.0
Cyperus iria; [10]
  herbicidal effect rating, CYPIR: 0.0
Cyperus iria; [11]
  herbicidal effect rating, CYPIR: 6.0
Cyperus iria; [12]
  herbicidal effect rating, CYPIR: 6.0
[2]; [8]
  herbicidal effect rating, MOOVA: 9.0
[2]; [9]
  herbicidal effect rating, MOOVA: 9.0
[2]; [10]
  herbicidal effect rating, MOOVA: 9.0
[2]; [11]
  herbicidal effect rating, MOOVA: 9.0
[2]; [12]
  herbicidal effect rating, MOOVA: 9.0
Sagittaria pygmaea, L.; [8]
  herbicidal effect rating, SAGPY: 4.0
Sagittaria pygmaea, L.; [9]
  herbicidal effect rating, SAGPY: 4.0
Sagittaria pygmaea, L.; [10]
  herbicidal effect rating, SAGPY: 5.0
Sagittaria pygmaea, L.; [11]
  herbicidal effect rating, SAGPY: 5.0
Sagittaria pygmaea, L.; [12]
  herbicidal effect rating, SAGPY: 5.0
[3]; Rate 0.0320 kg/ha
  herbicidal effect rating ORYSAT: 0.0
[3]; Rate 0.0620 kg/ha
  herbicidal effect rating ORYSAT: 0.0
[3]; Rate 0.1250 kg/ha
  herbicidal effect rating ORYSAT: 4.0
[3]; Rate 0.2500 kg/ha
  herbicidal effect rating ORYSAT: 5.0
[3]; Rate 0.5000 kg/ha
  herbicidal effect rating ORYSAT: 3.0
